molecular target: T1, KRAS G12C 1-169, his-tagged protein, GDP-loaded (Homo sapiens, UniProt P01116, G12C); assay: Covalent binding (% modification) to KRAS G12C by mass spectrometry; details: covalent binding to KRAS G12C after a ten minute incubation period
T1 construct: KRAS G12C 1-169, his-tagged protein, GDP-loaded
Experimental: Test compounds were prepared as 10 mM stock solutions in DMSO (Fisher cat # BP-231-100). KRAS G12C 1-169, his-tagged protein, GDP-loaded was diluted to 2 μm in buffer (20 mM Hepes, 150 mM NaCl, 1 mM MgCl2). Compounds were tested for activity as follows:
Compounds were diluted to 50× final test concentration in DMSO in 96-well storage plates. Compound stock solutions were vortexed before use and observed carefully for any sign of precipitation. Dilutions were as follow: • For 100 μM final compound concentration, compounds were diluted to 5000 μM (5 μl 10 mM compound stock+5 μl DMSO and mixed well by pipetting. • For 30 μM final compound concentration, compounds were diluted to 1500 μM (3 μl 10 mM compound stock+17 μl DMSO) and mixed well by pipetting. • For 10 μM final compound concentration, compounds were diluted to 500 μM (2 μl 10 mM compound stock+38 μl DMSO) and mixed well by pipetting. 49 μl of the stock protein solution was added to each well of a 96-well PCR plate (Fisher cat #1423027). 1 μl of the diluted 50× compounds were added to appropriate wells in the PCR plate using 12-channel pipettor. Reactions were mixed carefully and thoroughly by pipetting up/down with a 200·1 multi-channel pipettor. […] 5 μl of 2% formic acid (Fisher cat # A117) in DI H2O was then added to each well followed by mixing with a pipette. The plate was then resealed with aluminum seal and stored on dry ice until analyzed as described below.
The above described assays were analyzed by mass spectrometry according to one of the following two procedures:
The MS instrument is set to positive polarity, 2 GHz resolution, and low mass (1700) mode and allowed to equilibrate for 30 minutes. The instrument is then calibrated, switched to acquisition mode and the appropriate method loaded.
After another 30 minute equilibration time, a blank batch (i.e., buffer) is run to ensure equipment is operating properly. The samples are thawed at 37° C. for 10 minutes, briefly centrifuged, and transfer to the bench top. Wells A1 and H12 are spiked with 1 uL 500 uM internal standard peptide, and the plates centrifuged at 2000×g for 5 minutes. The method is then run and masses of each individual well recorded.
The masses (for which integration data is desired) for each well are pasted into the platemap and exported from the analysis. Masses for the internal standards are exported as well. The data at 50 ppm is extracted for the +19 charge state, and identity of well A1 is assigned using the internal standard spike and integrated. Peak data is exported as a TOF list and the above steps are repeated individually, for the +20, 21, 22, 23, 24, and 25 charge states.
The masses and peak intensities of KRAS G12C protein species were measured using a Dionex RSLCnano system (Thermo Scientific) connected to a Q Exactive Plus mass spectrometer (Thermo Scientific).
[…] of sample was each loaded onto a Aeris™ 3.6 μm WIDEPORE C4 200 Å, LC Column 50×2.1 mm column maintained at 40° C. at a flow rate of 600 μl min^−1 with […] (0.1% formic acid in acetonitrile). The liquid chromatography conditions were 20% solvent B for 1 min, 20% to 60% solvent B for 1.5 min, 60% to 90% solvent for 0.5 min, 90% solvent B for 0.2 min, 90% to 20% solvent B for 0.2 min, and then equilibrated for 1.6 min before the following sample injection. The flow rate was maintained at 600 μl min^−1 throughout the sample analysis.
The mass spectrometer was operated in profile mode at a resolution of 17500, 5 microscans, using 50 msec max injection time and an AGC target of 1e6, and a full mass range from 800-1850 m/z was recorded. The HCD trapping gas was optimized for maximum sensitivity for intact proteins. The ionization method was electrospray ionization, which used a spray voltage of 4 kV, sheath gas flow set to 50 au, auxiliary gas flow set to 10 au and sweep gas flow set to 1 au. […]

**Q.** Which Binding % does the source give for `C=CC(=O)N1CCN(c2nc(NC3CCN(C4CC4)CC3)nc3c(F)c(-c4c(C)ccc5[nH]ncc45)c(Cl)cc23)[C@@H](C)C1` (atropisomer, axis not shown) [Compound 13, 1-((S)-4-(6-chloro-2-(1-cyclopropyl-piperidin-4-ylamino)-8-fluoro-7-((R)-5-methyl-1H-indazol-4-yl)quinazolin-4-yl)-3-methyl-piperazin-1-yl) prop-2-en-1-one] here?
**A.** Its Binding % is “+++ (+++ indicates binding activity greater than 90%)”.

**Q.** `C=CC(=O)N1CCN(c2nc(NC3CCN(C4CC4)CC3)nc3c(F)c(-c4c(C)ccc5[nH]ncc45)c(Cl)cc23)[C@@H](C)C1` (atropisomer, axis not shown) [Compound 14, 1-((S)-4-(6-chloro-2-((1-cyclopropyl-piperidin-4-yl)amino)-8-fluoro-7-((S)-5-methyl-1H-indazol-4-yl)quinazolin-4-yl)-3-methyl-piperazin-1-yl) prop-2-en-1-one] was tested. Which Binding % did it give?
**A.** Its Binding % is “+ (+ indicates binding activity up to 50%)”.

**Q.** How did the Binding % turn out when `C=CC(=O)N1C[C@H](C)N(c2nc(N3CC(N(C)C)C3)nc3c(F)c(-c4c(O)cccc4F)c(Cl)cc23)C[C@H]1C` (atropisomer, axis not shown) [Compound 52, 1-((2R,5S)-4-((S)-6-chloro-2-(3-(dimethylamino)azetidin-1-yl)-8-fluoro-7-(2-fluoro-6-hydroxyphenyl)quinazolin-4-yl)-2,5-dimethyl-piperazin-1-yl) prop-2-en-1-one] was run?
**A.** Its Binding % is “+++ (+++ indicates binding activity greater than 90%)”.

**Q.** How did the Binding % turn out when `C=CC(=O)N1C[C@H](C)N(c2nc(N3CC(N(C)C)C3)nc3c(F)c(-c4c(O)cccc4F)c(Cl)cc23)C[C@H]1C` (atropisomer, axis not shown) [Compound 53, 1-((2R,5S)-4-((R)-6-chloro-2-(3-(dimethylamino)azetidin-1-yl)-8-fluoro-7-(2-fluoro-6-hydroxyphenyl)quinazolin-4-yl)-2,5-dimethyl-piperazin-1-yl) prop-2-en-1-one] was run?
**A.** Its Binding % is “+ (+ indicates binding activity up to 50%)”.

**Q.** Which Binding % does the source give for `C=CC(=O)N1CCN(c2nc(N3CC(N(C)C)C3)nc3c(F)c(-c4c(O)cccc4F)c(Cl)cc23)[C@@H](C)C1` (atropisomer, axis not shown) [Compound 58, 1-((S)-4-((S)-6-chloro-2-(3-(dimethylamino)azetidin-1-yl)-8-fluoro-7-(2-fluoro-6-hydroxyphenyl)quinazolin-4-yl)-3-methyl-piperazin-1-yl) prop-2-en-1-one] here?
**A.** The Binding % was “+++ (+++ indicates binding activity greater than 90%)”.

**Q.** With `C=CC(=O)N1CCN(c2nc(N3CC(N(C)C)C3)nc3c(F)c(-c4c(O)cccc4F)c(Cl)cc23)[C@@H](C)C1` (atropisomer, axis not shown) [Compound 59, 1-((S)-4-((R)-6-chloro-2-(3-(dimethylamino)azetidin-1-yl)-8-fluoro-7-(2-fluoro-6-hydroxyphenyl)quinazolin-4-yl)-3-methyl-piperazin-1-yl) prop-2-en-1-one] as the compound, how does the Binding % read?
**A.** Its Binding % is “+ (+ indicates binding activity up to 50%)”.

**Q.** How did the Binding % turn out when `C=CC(=O)N1CCN(c2nc(N3CC(N(C)C)C3)nc3c(F)c(-c4c(O)cccc4F)c(Cl)cc23)C[C@H]1C` (atropisomer, axis not shown) [Compound 60, 1-((R)-4-((S)-6-chloro-2-(3-(dimethylamino)azetidin-1-yl)-8-fluoro-7-(2-fluoro-6-hydroxyphenyl)quinazolin-4-yl)-2-methyl-piperazin-1-yl) prop-2-en-1-one] was run?
**A.** The Binding % was “+++ (+++ indicates binding activity greater than 90%)”.

**Q.** Which Binding % does the source give for `C=CC(=O)N1CCN(c2nc(N3CC(N(C)C)C3)nc3c(F)c(-c4c(O)cccc4F)c(Cl)cc23)C[C@H]1C` (atropisomer, axis not shown) [Compound 61, 1-((R)-4-((R)-6-chloro-2-(3-(dimethylamino)azetidin-1-yl)-8-fluoro-7-(2-fluoro-6-hydroxyphenyl)quinazolin-4-yl)-2-methyl-piperazin-1-yl) prop-2-en-1-one] here?
**A.** The Binding % was “+ (+ indicates binding activity up to 50%)”.

**Q.** Which Binding % does the source give for `C=CC(=O)N1CCN(c2nc(OCCN3CC(F)(F)C3)nc3c(F)c(-c4c(O)cccc4F)c(Cl)cc23)C[C@H]1C` (atropisomer, axis not shown) [Compound 62, 1-((R)-4-((R)-6-chloro-2-(2-(3,3-difluoroazetidin-1-yl)ethoxy)-8-fluoro-7-(2-fluoro-6-hydroxyphenyl)quinazolin-4-yl)-2-methyl-piperazin-1-yl) prop-2-en-1-one] here?
**A.** Its Binding % is “+ (+ indicates binding activity up to 50%)”.

**Q.** Which Binding % does the source give for `C=CC(=O)N1CCN(c2nc(OCCN3CC(F)(F)C3)nc3c(F)c(-c4c(O)cccc4F)c(Cl)cc23)C[C@H]1C` (atropisomer, axis not shown) [Compound 63, 1-((R)-4-((S)-6-chloro-2-(2-(3,3-difluoroazetidin-1-yl)ethoxy)-8-fluoro-7-(2-fluoro-6-hydroxyphenyl)quinazolin-4-yl)-2-methyl-piperazin-1-yl) prop-2-en-1-one] here?
**A.** Its Binding % is “+++ (+++ indicates binding activity greater than 90%)”.

**Q.** For `C=CC(=O)N1CCN(c2nc(N3CC(N(C)C)C3)nc3c(F)c(-c4c(C)ccc5cn[nH]c45)c(Cl)cc23)C[C@H]1C` (atropisomer, axis not shown) [Compound 70, 1-((R)-4-((R)-6-chloro-2-(3-(dimethylamino)azetidin-1-yl)-8-fluoro-7-(6-methyl-1H-indazol-7-yl)quinazolin-4-yl)-2-methyl-piperazin-1-yl) prop-2-en-1-one], which Binding % is on record?
**A.** Its Binding % is “+++ (+++ indicates binding activity greater than 90%)”.

**Q.** Which Binding % does the source give for `C=CC(=O)N1CCN(c2nc(N3CC(N(C)C)C3)nc3c(F)c(-c4c(C)ccc5cn[nH]c45)c(Cl)cc23)C[C@H]1C` (atropisomer, axis not shown) [Compound 71, 1-((R)-4-((S)-6-chloro-2-(3-(dimethylamino)azetidin-1-yl)-8-fluoro-7-(6-methyl-1H-indazol-7-yl)quinazolin-4-yl)-2-methyl-piperazin-1-yl) prop-2-en-1-one] here?
**A.** The Binding % was “+ (+ indicates binding activity up to 50%)”.

**Q.** With `C=CC(=O)N1C[C@H](C)N(c2nc(N3CC(N(C)C)C3)nc3c(F)c(-c4c(C)ccc5cn[nH]c45)c(Cl)cc23)C[C@H]1C` (atropisomer, axis not shown) [Compound 72, 1-((2R,5S)-4-((R)-6-chloro-2-(3-(dimethylamino)azetidin-1-yl)-8-fluoro-7-(6-methyl-1H-indazol-7-yl)quinazolin-4-yl)-2,5-dimethyl-piperazin-1-yl) prop-2-en-1-one] as the compound, how does the Binding % read?
**A.** The Binding % was “+++ (+++ indicates binding activity greater than 90%)”.

**Q.** `C=CC(=O)N1C[C@H](C)N(c2nc(N3CC(N(C)C)C3)nc3c(F)c(-c4c(C)ccc5cn[nH]c45)c(Cl)cc23)C[C@H]1C` (atropisomer, axis not shown) [Compound 73, 1-((2R,5S)-4-((S)-6-chloro-2-(3-(dimethylamino)azetidin-1-yl)-8-fluoro-7-(6-methyl-1H-indazol-7-yl)quinazolin-4-yl)-2,5-dimethyl-piperazin-1-yl) prop-2-en-1-one] was tested. Which Binding % did it give?
**A.** Its Binding % is “+ (+ indicates binding activity up to 50%)”.

same assay, conditions: covalent binding to KRAS G12C after a three minute incubation period

**Q.** With “1-((2R,5S)-4-(6- chloro-2-(2- (diethylamino) ethoxy)-8-fluoro- 7-((S)-6-methyl- 1H-indazol-7-yl) quinazolin-4-yl)- 2,5-dimethyl- piperazin-1-yl) prop-2-en-1-one [Compound 157]” as the compound, how does the Binding % read?
**A.** Its Binding % is “+ (+ indicates binding activity greater than 0% and up to 50%)”.
